{"source": "patent US20260097091A1", "about": "“ADMINISTRATION OF GLUTATHIONE TRISULFIDE TO AMELIORATE PERIPHERAL NEUROPATHY” (The General Hospital Corporation, priority 2022, published 2026)", "key": {"primary DRG neurons": {"test_system": "primary DRG neurons", "assay": "primary DRG neurons exposed to paclitaxel: Sholl analysis and axonal mitochondria (NF200, MitoTracker)", "format": "cell-based, mice", "settings": "500 nM PTNSSS with 100 nM paclitaxel for one hour", "procedure": "Primary DRG neurons were prepared from 8 to 10-week old mice as described previously. Briefly, lumber DRG (L1 to L6) were isolated from mice and centrifuged at 176×g (1000 rpm) for 3 minutes. After aspirating the solution, DRG were incubated with Dispase-II Solution (Sigma-Aldrich, Cat No. SCM133) and collagenase type II (Worthington, Cat No. LS004176) for 70 minutes and with 0.25% trypsin for 5 minutes. Subsequently triturated by frame polished glass pipet, neurons were seeded on a 12-well plate with 15 mm coverslip. Cells were incubated in Neurobasal A-medium with 2% B27 supplement (Gibco, Cat No. 10889038), 1% penicillin/streptomycin, 1% Glutamax (Gibco, Cat No. 35050061), and nerve growth factor (Sigma Aldrich, Cat No. N6009) for 24 hours. After 24 hours, they were exposed to 100 nM of paclitaxel with or without 500 nM of GSSSG or PTNSSS for one hour and 50 nM of MitoTracker (Invitrogen, Cat No. M22426) for 30 minutes. After fixing by 4% paraformaldehyde for 10 minutes at room temperature, cells were immersed in 0.2% Triton X-100 in PBS for 7 minutes and washed by PBS. They were incubated with anti-NF200 antibody (1:400, mouse, Sigma-Aldrich, Cat No. N0142) overnight at 4° C. and with the secondary antibody (1:1000, donkey anti-mouse, Abcam, Cat No. ab150105) for one hour at room temperature. After being covered with fluoroshield mounting medium with DAPI (Sigma-Aldrich, Cat No. F6057), 9-10 cells per group (3 mice per group) were imaged on confocal microscopy (ZEISS LSM 800, Carl Zeiss, Thornwood, NY) using a 63× oil immersion objectives lens with 1,024×1,024 pixels image size.\nEffects of PTNSSS and GSSSG on axonal integrity were examined in cultured murine primary DRG neurons incubated with paclitaxel. […] Morphology of neurons, the number, length, and branching of neurites, was analyzed by Sholl analysis implemented in ImageJ [30]. Sholl analysis draws equally spaced circles from the soma and counts the number of intersections between neurites and circles to quantify neuronal morphology (FIG. 8C)."}, "[1]": {"assay": "stability of PTN-SSS in solution", "format": "physicochemical", "settings": "pH 4.0-9.0 at room temperature", "from_the_text": "(§1) PTN-SSS was synthesized and provided by Kyowa Hakko Bio Co., Ltd. The purity of PTN-SSS is 96.3%, and PTN-SSS is highly water soluble (>50 g/L). PTN-SSS and PTN (Toronto Research Chemicals, Toronto, ON, Canada) were suspended in distilled water. PTN-SSS is stable in solution at pH 4.0-9.0 at room temperature for at least 4 days. In the PTN-SSS study, distilled water was used as the vehicle alone."}, "[2]": {"assay": "water solubility of PTN-SSS", "format": "physicochemical", "from_the_text": "as §1"}, "[3]": {"assay": "tissue distribution of orally administered ^34S-labeled GSSSG by LC-MS/MS", "format": "in vivo, mice", "settings": "2 hours after oral 50 mg/kg", "procedure": "To determine the tissue distribution of orally-administered GSSSG, ^34S-labelled GSSSG was administered by gavage to each of four mice. ^34S-labelled GSSSG was synthesized and provided by Kyowa Hakko Bio CO., LTD. Two hours after a single dose of ^34S-GSSSG, DRG, lumber spinal cord, brain, liver, and plasma were obtained and snap frozen for later analysis.\nWe examined whether administrated GSSSG via oral gavage reaches peripheral nervous system using liquid chromatography with tandem mass spectrometry (LC-MS/MS). Fifty mg/kg of ^34S-labeled GSSSG (in which the middle sulfur, that is a sulfane sulfur, was replaced to ^34S; G-^32S-^34S-^32S-G) was orally administered to mice. Two hours after administration, plasma and tissue from liver, brain, lumbar spinal cord, and lumbar DRG (L1 to L6) were collected and immediately frozen at −80° C. Tissues were homogenized with 5 mM of β-(4-hydroxyphenyl)ethyl iodoacetamide (HPE-IAM) (Santa Cruz, Cat No. SC-473766) and incubated for 20 minutes at 37° C. to promote HPE-IAM reaction that stabilizes persulfide residues. Proteins were removed by centrifugation at 15,000 g for 10 minutes at 4° C., and total protein concentration was measured by BCA assay. The supernatant was diluted by 0.1% formic acid for LC-MS/MS analysis. The amount of ^34S-labeled GSSSG was quantified in selective reaction monitoring (SRM) with precursor ion (647.14 m/z), product ion (389.1 m/z), and HCD (21 v) and normalized by protein concentration. The ratio of ^34S-labeled reactive sulfur species to endogenous (^32S) reactive sulfur species (GSSH, CysSSH, and CysSSSCys) were also calculated from their peak area measured by Dionex UltiMate 3000 RS UPLC-Orbitrap Exploris 480 mass spectrometer (Thermo Scientific Scientific, Waltham, MA, USA). In brief, samples were subjected to the UPLC system with a Hypersil Gold C-18 (100×2.1 mm, 3.0 μm, Thermo Fisher Scientific) column and they were eluted by using a linear methanol gradient of the mobile phase (0-90%, 15 minutes) in the presence of 0.1% formic acid at a flow rate of 0.2 ml/minutes at 40 degrees. The raw data were obtained by Compound Discoverer software 3.3. Molecular weight of reactive sulfur species combined with HPE-IAM were reported in previous studies."}}, "data": [{"compound": "CC(C)(CO)[C@@H](O)C(=O)NCCC(=O)NCCSSSCCNC(=O)CCNC(=O)[C@H](O)C(C)(C)CO", "note": "[PTN-SSS, pantethine trisulfide]", "values": [{"measurement": "axonal length (Sholl analysis)", "setting": "primary DRG neurons", "result": "prevented the axonal shortening induced by paclitaxel"}, {"measurement": "stable in solution", "setting": "[1]", "result": "at least 4 days"}, {"measurement": "water solubility", "setting": "[2]", "result": "> 50", "unit": "mg/mL"}]}, {"compound": "N[C@@H](CCC(=O)N[C@@H](CS[34S]SC[C@H](NC(=O)CC[C@H](N)C(=O)O)C(=O)NCC(=O)O)C(=O)NCC(=O)O)C(=O)O", "note": "[^34S-labelled GSSSG]", "values": [{"measurement": "ratio of ^34S-labelled CysSSH to endogenous CysSSH", "setting": "[3]; all 4 tissues", "result": "more than 10 fold"}, {"measurement": "ratio of ^34S-labelled CysSSSCys to endogenous CysSSSCys", "setting": "[3]; all 4 tissues", "result": "more than 10 fold"}, {"measurement": "ratio of ^34S-labelled GSSH to endogenous GSSH", "setting": "[3]; all 4 tissues (lumber DRG, lumber spinal cord, brain, liver)", "result": "more than 10 fold"}, {"measurement": "average concentration of ^34S-labelled GSSSG in brain", "setting": "[3]; mice", "result": 142, "unit": "pmol/mg protein"}, {"measurement": "average concentration of ^34S-labelled GSSSG in liver", "setting": "[3]; mice", "result": 158, "unit": "pmol/mg protein"}, {"measurement": "average concentration of ^34S-labelled GSSSG in lumber DRG", "setting": "[3]; mice", "result": 415, "unit": "pmol/mg protein"}, {"measurement": "average concentration of ^34S-labelled GSSSG in lumber spinal cord", "setting": "[3]; mice", "result": 518, "unit": "pmol/mg protein"}]}]}
